One compound from article PMC8533176, “1,5-Benzodiazepin-2(3H)-ones: In Vitro Evaluation as Antiparkinsonian Agents” (Antioxidants, 2021) can be followed below.

The subject of series [1] is SH-SY5Y cells. Description: Intracellular ROS levels (DCFH2-DA). Type of series: cell-based, human. Particulars: 400 µM H2O2 4 h; compounds 24 h before. The procedure:
Intracellular ROS levels were determined using dichlorofluorescein diacetate (DCFH2-DA) according to Wang et al.. DCFH2-DA is cleaved by intracellular esterases and is oxidized by ROS to form the fluorescent compound DCF, which represents the ROS level. Therefore, 3 × 10^3 SH-SY5Y cells were seeded in 96-well culture black clear bottom plates and after 24 h were treated with the test compound for an additional 24 h. Then, they were exposed to H2O2 for 4 h. After the incubation period, cells were washed twice with Hanks buffer and loaded with 20 µM DCFH2-DA (in FBS-free culture medium) for 40 min in dark at 37 °C in a CO2 incubator. At the end of the dye incubation period, they were washed twice with Hanks buffer to remove the extracellular DCFH2-DA. Fluorescence was measured with a Varioskan microplate reader at λex = 485 nm and λem = 535 nm wavelengths. Results are expressed as a percentage of the fluorescent increase compared with that of the control. All the experiments were performed at least three times in quadruplicate for each compound concentration.

The subject of a further series is HepG2 cells. Description: Cytotoxicity, MTT assay, HepG2. The class given is cell-based. Particulars: Homo sapiens, HepG2; MTT, cytotoxicity; read-out: HepG2 IC50. Summed up: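 Cells treated with 5–200 µM compound (DMSO vehicle, four replicates) after overnight attachment. Viability read by MTT reduction (2 h, 37 °C, dark; formazan in DMSO, A570) relative to vehicle controls; IC50 from dose–response regression.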

Series [2] has as its system Caspase-3 activity in SH-SY5Y cells. The series is described as follows: Caspase-3 activity. The following applies: H2O2 500 µM 4 h; compound 24 h before. Type of series: cell-based, human. The procedure: Caspase-3 activity was measured using the Abcam fluorimetric kit (ab39383) according to the manufacturer’s instructions. Cells are washed with ice-cold PBS and lysed with lysis buffer. After compound and stressor treatments, SH-SY5Y cells were scraped off from p6 plates and collected in a 1.5 mL Eppendorf vial. The cell suspension was then centrifuged at 9000× g for 10 min at 4 °C. The supernatant was collected and stored at −80 °C for 24 h. Caspase 3 activity was measured as the ability of the cell extract to cleave the […] fluorochrome. The sample’s protein concentration was determined by the Bradford method. The reaction assay was performed by the addition of 50 μL of the cell lysate into the wells of a black 96-well culture plate followed by the addition of 50 μL of 2× reaction buffer containing DTT (10 mM) and caspase-3 substrate DEVD-AFC (final concentration 50 μM). Reagents were mixed by shaking the plate for 2 min at 300 rpm and then incubated at 37 °C for 2 h. Caspase-3 activity was measured as fluorescence intensity in a Varioskan microplate reader at λex = 400 nm and λem = 505 nm wavelengths. Relative fluorescence units (RFU)/mg of protein were calculated, and the fold increase in Caspase-3 activity was compared with that of the control.

Series [3] concerns SH-SY5Y cells. The series is described as follows: Apoptosis and necrosis by flow cytometry (Annexin V-PE/7-AAD). The following applies: 10 and 20 µM 24 h, then H2O2 1 mM 4 h. For orientation: A flow cytometer gives signals particle by particle.
Test in series [4]: as above
The following applies: human, SH-SY5Y cells.

A short description of series [5]: Kinetic solubility by UV spectrometry. The class given is physicochemical. Particulars: PBS 50 mM, aqueous buffer, kinetic from dmso stock. In outline:
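Compound from 20 mM DMSO stock was added to 10 mM PBS, shaken 2 h and filtered. The filtrate's UV absorbance (270–600 nm) was quantified against a 10–200 µM calibration curve in 50 mM PBS with 2% DMSO. Run in triplicate.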

Series [6] is described as follows: Chemical reactivity with H2O2. The class given is physicochemical. The following applies: H2O2 500 µM, 37 °C, 4 h, DMEM:F12 without cells. The procedure: In our case, before running the protection experiments under oxidative stress conditions, we carried out experiments to assess the potential reactivity of compounds 9, 11, 13, and 18 at four different concentrations (5, 10, 20, and 40 µM) with H2O2 500 µM at 37 °C for 4 h in DMEM:F12 (without phenol red, FBS, and cells). Curcumin was used as a control compound.

The nature of series [7]: ABTS radical scavenging assay. Type of series: biochemical. As for the experimental part: The mixture was stored in the dark at room temperature for 16 h. […] All the compounds tested were dissolved in EtOH. […] The degree of decolorization was calculated as the percentage reduction of absorbance. […] Trolox was used as a reference antioxidant.

As for `O=C1CC(c2ccccc2)=Nc2ccccc2N1` [Compound 18, 4-Phenyl-1H-1,5-benzodiazepin-2(3H)-one], the “Intracellular ROS level reduction” value in the series on SH-SY5Y cells [1] is given as “ROS level reduction at all doses”. For the same compound, the IC50 turned out to be 224 ± 35 µM in the series on HepG2 cells and 187 ± 15.2 µM in series [7] (30-min incubation). Also, in series [2], the Caspase-3 activity reduction result is listed as “reduced the levels of activated caspase 3”. In addition, the “Effect on apoptotic cell populations” value with SH-SY5Y cells [3] is on record as “reduced the number of late apoptotic cells”. The compound also returned a viability at 24 h, 10 µM in series [4] of 26.6%. Also, the viability at 24 h, 20 µM in series [4] stood at 28.1%. In series [5], the solubility is below 100 µM. Besides, in series [6], the “Reaction with H2O2” value is listed as “did not show any significant reaction”. The “ABTS Assay TEAC50” value in series [7] (Equivalent antioxidant capacity at Trolox 50 mM) amounted to 0.36. Besides, the “ABTS Assay TEAC100” value in series [7] (Equivalent antioxidant capacity at Trolox 100 mM) is 0.21.

For orientation: IC50 means the concentration at which inhibition is half-maximal. Usually viability stands for a per cent measure of how many cells are alive, often set against a control. High values mean less harm to the cells, low ones more harm to the cells. One may read the solubility as how much of the substance goes into solution per volume. A lower solubility goes with a poorly soluble substance.
